Data taken from patent publication US7652005B2, “Tricyclic δ-opioid modulators” (Janssen Pharmaceutica N.V., priority 2004, dated 2010).

Each compound was assayed against T1, delta opioid receptor (Rattus norvegicus, UniProt P33533) (assay: Rat Brain Delta Opioid Receptor Binding Assay). Details: rat forebrain membrane preparation; [3H]DPDPE or [3H]naltrindole, 25° C., 2.5 h.
T1 construct: from tissue; host or cells: rat forebrain homogenate (male Wistar rats), particulate membrane preparation
T1 sequence (P33533 whole entry): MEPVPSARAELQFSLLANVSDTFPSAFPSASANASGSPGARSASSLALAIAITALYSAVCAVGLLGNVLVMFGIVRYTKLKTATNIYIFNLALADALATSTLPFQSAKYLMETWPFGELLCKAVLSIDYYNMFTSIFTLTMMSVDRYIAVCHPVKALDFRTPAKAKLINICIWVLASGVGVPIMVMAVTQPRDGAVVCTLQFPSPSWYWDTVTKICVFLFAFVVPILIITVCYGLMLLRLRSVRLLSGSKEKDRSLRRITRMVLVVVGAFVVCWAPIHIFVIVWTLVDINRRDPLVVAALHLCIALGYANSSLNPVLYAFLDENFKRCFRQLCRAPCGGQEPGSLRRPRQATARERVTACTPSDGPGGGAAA
`c1ccc(CCN2[C@@H]3CC[C@H]2C[C@H](N2c4ccccc4Oc4cc(-c5ccncc5)ccc42)C3)cc1` [Compound 3m, Exo-10-(8-Phenethyl-8-aza-bicyclo[3.2.1]oct-3-yl)-3-pyridin-4-yl-10H-phenoxazine] gave a Ki of 480 nM.
For `c1ccc(CN2[C@@H]3CC[C@H]2C[C@@H](N2c4ccccc4Oc4cc(-c5ccncc5)ccc42)C3)nc1` [Compound 4k, Endo-3-Pyridin-4-yl-10-(8-pyridin-2-ylmethyl-8-aza-bicyclo[3.2.1]oct-3-yl)-10H-phenoxazine], the Ki was 445 nM.
With `c1ccc2c(c1)Oc1cc(-c3ccncc3)ccc1N2[C@H]1C[C@H]2CC[C@@H](C1)N2` [Compound 2k, Endo-10-(8-Aza-bicyclo[3.2.1]oct-3-yl)-3-pyridin-4-yl-10H-phenoxazine] the Ki was 696 nM.
`c1ccc2c(c1)Oc1cc(-c3ccncc3)ccc1N2[C@@H]1C[C@H]2CC[C@@H](C1)N2Cc1ccoc1` [Compound 5m, Exo-10-(8-Furan-3-ylmethyl-8-aza-bicyclo[3.2.1]oct-3-yl)-3-pyridin-4-yl-10H-phenoxazine] gave a Ki of 1280 nM.
`CCN(CC)C(=O)c1ccc2c(c1)Oc1ccccc1N2[C@H]1C[C@H]2CC[C@@H](C1)N2CCc1ccccc1` [Compound 6t, Endo-10-(8-Phenethyl-8-aza-bicyclo[3.2.1]oct-3-yl)-10H-phenoxazine-3-carboxylic acid diethylamide] was tested, and the Ki was 231 nM.
`c1ccc(CN2[C@@H]3CC[C@H]2C[C@@H](N2c4ccccc4Oc4cc(-c5cccnc5)ccc42)C3)nc1` [Compound 7j, Endo-3-Pyridin-3-yl-10-(8-pyridin-2-ylmethyl-8-aza-bicyclo[3.2.1]oct-3-yl)-10H-phenoxazine] gave a Ki of 104 nM.
`c1cncc(-c2ccc3c(c2)Oc2ccccc2N3[C@H]2C[C@H]3CC[C@@H](C2)N3)c1` [Compound 5j, Endo-10-(8-Aza-bicyclo[3.2.1]oct-3-yl)-3-pyridin-3-yl-10H-phenoxazine] was tested, and the Ki was 409 nM.
With `Oc1cccc2c1Oc1cc(-c3ccncc3)ccc1N2[C@H]1C[C@H]2CC[C@@H](C1)N2CCc1ccccc1` [Compound 10v, Endo-10-(8-Phenethyl-8-aza-bicyclo[3.2.1]oct-3-yl)-7-pyridin-4-yl-10H-phenoxazin-4-ol] the Ki was > 10000 nM.
`c1ccc(CCN2[C@@H]3CC[C@H]2C[C@@H](N2c4ccccc4Oc4cc(-c5cccnc5)ccc42)C3)cc1` [Compound 6j, Endo-10-(8-Phenethyl-8-aza-bicyclo[3.2.1]oct-3-yl)-3-pyridin-3-yl-10H-phenoxazine] was tested, and the Ki was 3260 nM.
In the case of `c1ccc2c(c1)Oc1cc(-c3ccncc3)ccc1N2[C@H]1C[C@H]2CC[C@@H](C1)N2Cc1ccoc1` [Compound 5k, Endo-10-(8-Furan-3-ylmethyl-8-aza-bicyclo[3.2.1]oct-3-yl)-3-pyridin-4-yl-10H-phenoxazine], the Ki is reported as 247 nM.
Compound `c1csc(CN2[C@@H]3CC[C@H]2C[C@@H](N2c4ccccc4Oc4cc(-c5ccncc5)ccc42)C3)c1` [Compound 6k, Endo-3-Pyridin-4-yl-10-(8-thiophen-2-ylmethyl-8-aza-bicyclo[3.2.1]oct-3-yl)-10H-phenoxazine] has a Ki of 14200 nM.
In the case of `CC(=O)Nc1ccccc1-c1ccc2c(c1)Oc1ccccc1N2[C@H]1C[C@H]2CC[C@@H](C1)N2CCc1ccccc1` [Compound 3x, Endo-N-{2-[10-(8-Phenethyl-8-aza-bicyclo[3.2.1]oct-3-yl)-10H-phenoxazin-3-yl]-phenyl}-acetamide], the Ki is reported as 1590 nM.
With `COc1cccc2c1Oc1cc(-c3ccncc3)ccc1N2[C@H]1C[C@H]2CC[C@@H](C1)N2CCc1ccccc1` [Compound 13v, Endo-6-Methoxy-10-(8-phenethyl-8-aza-bicyclo[3.2.1]oct-3-yl)-3-pyridin-4-yl-10H-phenoxazine] the Ki was > 10000 nM.
`c1ccc(CCN2[C@@H]3CC[C@H]2C[C@H](N2c4ccccc4Oc4cc(-c5cccnc5)ccc42)C3)cc1` [Compound 4l, Exo-10-(8-Phenethyl-8-aza-bicyclo[3.2.1]oct-3-yl)-3-pyridin-3-yl-10H-phenoxazine] was tested, and the Ki was 425 nM.
